Where a name gives a salt, the structure may show the parent alone. Read-outs that look alike come from different tables or passages of the source.
What was measured:
[1] = test system: NCI-H358 cells (express KRas G12C), Phospho-ERK; assay: Cellular inhibition of KRas G12C: Phospho-ERK in NCI-H358 cells; format: cell-based; settings: pERK(Thr202/Tyr204) normalized with GAPDH, NCI-H358 cells, 3 hours, read-out: IC50
Procedure, shortened: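 IC50 derived by 4-parameter fit of GAPDH-normalized pERK(Thr202/Tyr204) signal, as percent of DMSO control. Signal came from in-cell immunodetection with infrared secondaries after 3 h compound exposure of KRas G12C NCI-H358 cells at 0.5% DMSO.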

KRas G12C = KRas G12C (Homo sapiens, UniProt P01116, C118S/C51S/C80L/G12C); assay: KRas G12C Modification Assay (LCMS detection of covalent adduct); format: binding; settings: normalized percent of control; tested at 5 μM concentration for 3 hours
Procedure, shortened: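 Cys-light KRas G12C mutant protein incubated with compound in K-Ras assay buffer, reactions quenched at set time points with 25 mM acetic acid and analysed by intact-protein LC/MS on a C-3 column. Deconvoluted mass heights expressed as percent of control (POC) relative to compound-free protein.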

Row | POC (KRas G12C) | SMILES | IC50 ([1]; Homo sapiens, NCI-H358, 3 h) | IC50 ([1]; Homo sapiens) | IC50 [1]
1 | C (“C”>50% POC) | C=CC(=O)N1CCN(c2nc(OC[C@@H]3CCCN3C)nc3c2CCN(c2cccc4ccccc24)C3)C[C@@H]1CCOC [Example 432, 1-((S)-2-(2-methoxyethyl)-4-(2-(((S)-1-methylpyrrolidin-2-yl)methoxy)-7-(naphthalen-1-yl)-5,6,7,8-tetrahydropyrido[3,4-d]pyrimidin-4-yl)piperazin-1-yl)prop-2-en-1-one] | > 1000 nM | – | –
2 | A (“A”≤25% POC) | C=CC(=O)N1CCN(c2nc(O[C@H](C)CN(C)C)nc3c2CCN(c2cc(OC(F)(F)F)ccc2O)C3)CC1 [Example 86, (R)-1-(4-(2-((1-(dimethylamino)propan-2-yl)oxy)-7-(2-hydroxy-5-(trifluoromethoxy)phenyl)-5,6,7,8-tetrahydropyrido[3,4-d]pyrimidin-4-yl)piperazin-1-yl)prop-2-en-1-one] | – | > 1000 nM | –
3 | B (“B”>25% POC−≤50% POC) | C=CC(=O)N1CCN(c2nc(O[C@H](C)CN(C)C)nc3c2CCN(c2cccc4ccccc24)C3)CC1CC#N (stereo partly drawn) [Example 151, 2-(1-acryloyl-4-(2-(((R)-1-(dimethylamino)propan-2-yl)oxy)-7-(naphthalen-1-yl)-5,6,7,8-tetrahydropyrido[3,4-d]pyrimidin-4-yl)piperazin-2-yl)acetonitrile] | > 1000 nM | – | –
4 | C (“C”>50% POC) | C=CC(=O)N1CCN(c2nc(OC[C@@H]3CCN(C)C3)nc3c2CCN(c2cc(O)cc4ccccc24)C3)CC1 [Example 110, (R)-1-(4-(7-(3-hydroxynaphthalen-1-yl)-2-((1-methylpyrrolidin-3-yl)methoxy)-5,6,7,8-tetrahydropyrido[3,4-d]pyrimidin-4-yl)piperazin-1-yl)prop-2-en-1-one] | 0.1 to 1000 nM | – | –
5 | C (“C”>50% POC) | C=CC(=O)N1CCN(c2nc(OCCN3CCN(C(C)=O)CC3)nc3c2CCN(c2cc(O)cc4ccccc24)C3)CC1 [Example 37, 1-(4-(2-(2-(4-acetylpiperazin-1-yl)ethoxy)-7-(3-hydroxynaphthalen-1-yl)-5,6,7,8-tetrahydropyrido[3,4-d]pyrimidin-4-yl)piperazin-1-yl)prop-2-en-1-one] | > 1000 nM | – | –
6 | B (“B”>25% POC−≤50% POC) | C=CC(=O)N1CCN(c2nc(N3CCCC3)nc3c2CCN(c2cc(O)cc4ccccc24)C3)CC1 [Example 119, 1-(4-(7-(3-hydroxynaphthalen-1-yl)-2-(pyrrolidin-1-yl)-5,6,7,8-tetrahydropyrido[3,4-d]pyrimidin-4-yl)piperazin-1-yl)prop-2-en-1-one] | > 1000 nM | – | –
7 | C (“C”>50% POC) | C=CC(=O)N1CCN(c2nc(OCCN3CCC[C@@H](OC)C3)nc3c2CCN(c2cc(O)cc4ccccc24)C3)CC1 [Example 99, (R)-1-(4-(7-(3-hydroxynaphthalen-1-yl)-2-(2-(3-methoxypiperidin-1-yl)ethoxy)-5,6,7,8-tetrahydropyrido[3,4-d]pyrimidin-4-yl)piperazin-1-yl)prop-2-en-1-one] | > 1000 nM | – | –
8 | C (“C”>50% POC) | C=CC(=O)N1CC2(C1)CN(c1nc(OCCCN(C)C)nc3c1CCN(c1cc(O)cc4ccccc14)C3)C2 [Example 20, 1-(6-(2-(3-(dimethylamino)propoxy)-7-(3-hydroxynaphthalen-1-yl)-5,6,7,8-tetrahydropyrido[3,4-d]pyrimidin-4-yl)-2,6-diazaspiro[3.3]heptan-2-yl)prop-2-en-1-one] | > 1000 nM | – | –
9 | C (“C”>50% POC) | C=CC(=O)N1CCN(c2nc(OCCN(CC)CC)nc3c2CCN(c2ccccc2C(F)(F)F)C3)CC1CC#N (centres unmarked) [Example 300, 2-[4-[2-[2-(diethylamino)ethoxy]-7-[2-(trifluoromethyl)phenyl]-6,8-dihydro-5H-pyrido[3,4-d]pyrimidin-4-yl]-1-prop-2-enoyl-piperazin-2-yl]acetonitrile] | – | – | 0.1 to 1000 nM
10 | C (“C”>50% POC) | C=CC(=O)N1CCN(c2nc(OC[C@H]3C[C@H](O)CN3C)nc3c2CCN(c2cccc(F)c2C(F)(F)F)C3)CC1CC#N (stereo partly drawn) [Example 414, 2-(1-acryloyl-4-(7-(3-fluoro-2-(trifluoromethyl)phenyl)-2-(((2R,4S)-4-hydroxy-1-methylpyrrolidin-2-yl)methoxy)-5,6,7,8-tetrahydropyrido[3,4-d]pyrimidin-4-yl)piperazin-2-yl)acetonitrile] | 0.1 to 1000 nM | – | –
11 | C (“C”>50% POC) | C=CC(=O)N1CCN(c2nc(OC[C@@H]3CCCN3C)nc3c2CCN(c2cccc(Cl)c2OC)C3)C[C@@H]1CC#N [Example 421, 2-((S)-1-acryloyl-4-(7-(3-chloro-2-methoxyphenyl)-2-(((S)-1-methylpyrrolidin-2-yl)methoxy)-5,6,7,8-tetrahydropyrido[3,4-d]pyrimidin-4-yl)piperazin-2-yl)acetonitrile] | 0.1 to 1000 nM | – | –

The next lines start with the compound.

Row | SMILES | POC (KRas G12C) | IC50 ([1]; Homo sapiens, NCI-H358, 3 h) | IC50 ([1]; Homo sapiens) | IC50 [1]
12 | C=CC(=O)N1CCN(c2nc(OC3CCN(C)C3)nc3c2CCN(c2cc(O)cc4ccccc24)C3)CC1 (centres unmarked) [Example 23, 1-(4-(7-(3-hydroxynaphthalen-1-yl)-2-((1-methylpyrrolidin-3-yl)oxy)-5,6,7,8-tetrahydropyrido[3,4-d]pyrimidin-4-yl)piperazin-1-yl)prop-2-en-1-one] | C (“C”>50% POC) | > 1000 nM | – | –
13 | C=CC(=O)N1CCN(c2nc(OC[C@@H]3CCCN3C)nc3c2CCN(c2cccc4ccc(F)cc24)C3)CC1CC#N (some centres unmarked) [Example 302] | C (“C”>50% POC) | 0.1 to 1000 nM | – | –
14 | C=CC(=O)N1CCN(c2nc(OCCN3CCCC3)nc3c2CCN(c2cc(O)cc4ccccc24)C3)CC1 [Example 85, 1-(4-(7-(3-hydroxynaphthalen-1-yl)-2-(2-(pyrrolidin-1-yl)ethoxy)-5,6,7,8-tetrahydropyrido[3,4-d]pyrimidin-4-yl)piperazin-1-yl)prop-2-en-1-one] | C (“C”>50% POC) | > 1000 nM | – | –
15 | C=CC(=O)N1CCN(c2nc(OCCN(C)C)nc3c2CCN(c2cc(O)cc4ccccc24)C3)C[C@@H]1CC#N [Example 176, 2-[(2S)-4-[2-[2-(dimethylamino)ethoxy]-7-(3-hydroxy-1-naphthyl)-6,8-dihydro-5H-pyrido[3,4-d]pyrimidin-4-yl]-1-prop-2-enoyl-piperazin-2-yl]acetonitrile] | C (“C”>50% POC) | 0.1 to 1000 nM | – | –
16 | C=CC(=O)N1CCN(c2nc(OCCCN3CCOCC3)nc3c2CCN(c2cc(O)cc(C4CC4)c2)C3)CC1 [Example 41, 1-(4-(7-(3-cyclopropyl-5-hydroxyphenyl)-2-(3-morpholinopropoxy)-5,6,7,8-tetrahydropyrido[3,4-d]pyrimidin-4-yl)piperazin-1-yl)prop-2-en-1-one trifluoroacetate] | A (“A”≤25% POC) | – | > 1000 nM | –
17 | C=CC(=O)N1CCN(c2nc(OC[C@@H]3CC(F)(F)CN3C)nc3c2CCN(c2cccc4ccccc24)C3)C[C@@H]1CC#N [Example 445, 2-((S)-1-Acryloyl-4-(2-(((S)-4,4-difluoro-1-methylpyrrolidin-2-yl)methoxy)-7-(naphthalen-1-yl)-5,6,7,8-tetrahydropyrido[3,4-d]pyrimidin-4-yl)piperazin-2-yl)acetonitrile] | C (“C”>50% POC) | 0.1 to 1000 nM | – | –
18 | C=CC(=O)N1CCN(c2nc(OC[C@@H]3C[C@@H](F)CN3C)nc3c2CCN(c2cc(O)cc4ccccc24)C3)CC1 [Example 357, 1-[4-[2-[[(2S,4R)-4-fluoro-1-methyl-pyrrolidin-2-yl]methoxy]-7-(3-hydroxy-1-naphthyl)-6,8-dihydro-5H-pyrido[3,4-d]pyrimidin-4-yl]piperazin-1-yl]prop-2-en-1-one] | A (“A”≤25% POC) | 0.1 to 1000 nM | – | –
19 | C=CC(=O)N1CCN(c2nc(OC[C@@H]3CCCN3C)nc3c2CCN(c2c(C)c(C)cc4[nH]ncc24)C3)C[C@@H]1CC#N [Example 459, 2-[(2S)-4-[7-(5,6-dimethyl-1H-indazol-4-yl)-2-[[(25)-1-methylpyrrolidin-2-yl]methoxy]-6,8-dihydro-5H-pyrido[3,4-d]pyrimidin-4-yl]-1-prop-2-enoyl-piperazin-2-yl]acetonitrile] | C (“C”>50% POC) | – | – | 0.1 to 1000 nM
20 | CN1CCC[C@H]1COc1nc2c(c(N3CCN(C(=O)/C=C/CN4CCOCC4)[C@@H](CC#N)C3)n1)CCN(c1cccc3cccc(Cl)c13)C2 [Example 367, 2-[(2S)-4-[7-(8-chloro-1-naphthyl)-2-[[(2S)-1-methylpyrrolidin-2-yl]methoxy]-6,8-dihydro-5H-pyrido[3,4-d]pyrimidin-4-yl]-1-[(E)-4-morpholinobut-2-enoyl]piperazin-2-yl]acetonitrile] | C (“C”>50% POC) | 0.1 to 1000 nM | – | –
21 | C=CC(=O)N1CCN(c2nc(N3CCCC(N(C)C)C3)nc3c2CCN(c2cccc4ccccc24)C3)C[C@@H]1CC#N (stereo partly drawn) [Example 404, 2-((2S)-1-acryloyl-4-(2-(3-(dimethylamino)piperidin-1-yl)-7-(naphthalen-1-yl)-5,6,7,8-tetrahydropyrido[3,4-d]pyrimidin-4-yl)piperazin-2-yl)acetonitrile] | C (“C”>50% POC) | 0.1 to 1000 nM | – | –
22 | C=CC(=O)N1CCN(c2nc(O[C@H](C)CN(C)CC)nc3c2CCN(c2cc(O)cc4ccccc24)C3)CC1 [Example 131, 1-[4-[2-[(1R)-2-[ethyl(methyl)amino]-1-methyl-ethoxy]-7-(3-hydroxy-1-naphthyl)-6,8-dihydro-5H-pyrido[3,4-d]pyrimidin-4-yl]piperazin-1-yl]prop-2-en-1-one] | C (“C”>50% POC) | – | 0.1 to 1000 nM | –

Source: patent publication US10125134B2 (Mirati Therapeutics, Inc., priority 2016, dated 2018)
